Experiments:
[1] = daily dose of 200 mg; cited from earlier work
[2] = test system: pulmonary artery pressure; conditions: in vivo studies; cited from earlier work
[3] = test system: liver cells; test: in vitro experiments in liver cells, nucleotide status; type: cell-based; conditions: incubation with increasing concentrations

COC1=C(OC)C(=O)C(C/C=C(\C)CC/C=C(\C)CC/C=C(\C)CC/C=C(\C)CC/C=C(\C)CC/C=C(\C)CC/C=C(\C)CC/C=C(\C)CC/C=C(\C)CCC=C(C)C)=C(C)C1=O [CoQ10, Coenzyme Q10]
increase in plasma CoQ10 levels [1]: more than six-fold increase

CC(=O)N[C@@H](CS)C(=O)O [NAC, N-acetyl cysteine]
endotoxin-induced rise in pulmonary artery pressure [2]: attenuates

Nc1nc2ncc(CNc3ccc(C(=O)N[C@@H](CCC(=O)O)C(=O)O)cc3)nc2c(=O)[nH]1 [folic acid]
nucleotide status [3]: able to restore the nucleotide status
